# Experimental data published in patent US20250095772A1, “METHOD FOR IMPROVING THROUGHPUT OF COMPOUND-PROTEIN INTERACTION EXPERIMENTS” (SOUTHERN UNIVERSITY OF SCIENCE AND TECHNOLOGY, priority 2022, published 2025).
# Tests used:
# K562 cell lysate [1] = test: Single temperature point TPP target identification, 25 drugs pooled into 14 mixture systems (Example 2); type: binding; settings: 25 compounds in 14 mixture systems (each in 4), remaining steps as Example 1 (40 μM, K562 cell lysate, 52° C., LASSO β threshold 0.1); — = no target identified
# Description: In step S04: DMSO as a solvent was added to each mixture system in step S03 to enable a concentration of each drug to reach 40 μM, and then the single temperature point TPP method is applied to measure the interaction between each mixture system and the protein. The specific experimental steps are that: equal amounts of K562 cell lysate were mixed with a drug mixture system, incubated at room temperature for 10 minutes, then heated at 52° C. for 3 minutes, and then quickly cooled to 4° C. on a PCR machine. The samples were centrifuged at 21,000 rcf for 20 minutes at 4° C., and the supernatant was collected. According to the mass spectrometry-based proteomics quantification method, each sample was enzymatically digested and TMT labeled, and then the LC-MS mass spectrometry was used for measurement to obtain the content of protein. […] Therefore, if a protein can interact with the mixed system, then the content of protein measured by mass spectrometry will be higher, and vice versa.
# (§1) In step S05: Nine measured values Yi obtained from the interaction between the nine mixture systems and the target protein are marked as response vectors Y; the response vectors Y were normalized so that the numerical values of the response vectors are between 0 and 1. The response vector Y and the permutation matrix S meet a relational expression of:
# Where, λ is a penalty term, which is used to adjust a compression degree of β, in this embodiment, the value of λ is 0.1 and the threshold is 0.1.
# It is assumed that the above twenty-five compounds to be tested are mixed into fourteen mixture systems: mixture system 1, mixture system 2, mixture system 3, . . . and mixture system 14. Each compound to be tested was included in four different mixture systems. That is, m=14, n=25, a=4. […] In FIG. 5, the black grid represents the numerical value of 1, and the white grid represents the numerical value of 0. […] The twenty-five compounds to be tested were mixed according to the finally obtained 14×25 optimized permutation matrix S shown in FIG. 5, to obtain fourteen mixture systems.
# K562 cell lysate [2] = test: Single temperature point TPP target identification, 15 drugs pooled into 9 mixture systems (Example 1); type: binding; settings: 15 compounds in 9 mixture systems (each in 3), each drug 40 μM, heated at 52° C. for 3 minutes, LASSO β threshold 0.1, — = no target identified
# Description: In step S01: Fifteen drugs to be tested (i.e., the compounds to be tested) were given: Palbociclib, Panobinostat, Raltitrexed, Methotrexate, Vemurafenib, Fimepinostat, SCIO-469, SL-327, 5-Fluorouracil, Olaparib, Belumosudil, OTS964, Parthenolide, CCT137690, […], which are sequentially numbered as compound to be tested 1, compound to be tested 2, compound to be tested 3, . . . and compound to be tested 15. It is assumed here that the above fifteen compounds to be tested are mixed into nine mixture systems: mixture system 1, mixture system 2, mixture system 3, . . . and mixture system 9, and each compound to be tested was included in three different mixture systems, that is, m=9, n=15, a=3. The nine mixture systems are mapped into a 9x15 initial permutation matrix A of the compounds to be tested, and the initial permutation matrix A is randomly initialized so that the numerical values in the matrix A are random floating-point numbers between 0 and 1.
# The initial permutation matrix A of the compounds to be tested was iteratively optimized through a genetic algorithm to minimize the value of the objective function L; the permutation matrix A is subjected to the binary conversion in step S02 when the value of the objective function L is the minimum to obtain the optimized permutation matrix S (as shown in FIG. 3), the optimized permutation matrix S is the final permutation matrix. […] In FIGS. 2 and 3, the black grid represents the numerical value 1, and the white grid represents the numerical value 0. During the iteration process, the value of the objective function L decreases to a constant value as the number of iterations increases, as shown in FIG. 4. The fifteen compounds to be tested were mixed according to the finally-obtained 9×15 optimized permutation matrix shown in FIG. 3, and nine mixture systems were obtained.
# In step S04: DMSO as a solvent was added to each mixture system in step S03 to enable a concentration of each drug to reach 40 μM, and then the single temperature point TPP method is applied to measure the interaction between each mixture system and the protein. The specific experimental steps are that: equal amounts of K562 cell lysate were mixed with a drug mixture system, incubated at room temperature for 10 minutes, then heated at 52° C. for 3 minutes, and then quickly cooled to 4° C. on a PCR machine. The samples were centrifuged at 21,000 rcf for 20 minutes at 4° C., and the supernatant was collected. According to the mass spectrometry-based proteomics quantification method, each sample was enzymatically digested and TMT labeled, and then the LC-MS mass spectrometry was used for measurement to obtain the content of protein. Based on the principle of the TPP method, the thermal stability of the protein can be improved through a combination with compounds. Therefore, if a protein can interact with the mixed system, then the content of protein measured by mass spectrometry will be higher, and vice versa.
# as §1
# Where, Yi represents a response value of the ability of the mixture system identified as i among the nine mixture systems to interact with the target protein, and βj is a contribution of the compound to be tested identified as j in the mixture system identified as i to the response value of the mixture system identified as i, βj is a coefficient vector with a length n, and R is a residual vector with a length […].
# the LASSO regression method is applied to obtain an optimal solution of β based on the following expression: […]
SMILES,Successfully Identified Target(s) (K562 cell lysate [1]),Successfully Identified Target(s) (K562 cell lysate [2])
O=C(c1cc(Cc2n[nH]c(=O)c3ccccc23)ccc1F)N1CCN(C(=O)C2CC2)CC1 [Olaparib],PARP1,PARP1
Cc1nc2ccc(CN(C)c3ccc(C(=O)N[C@@H](CCC(=O)O)C(=O)O)s3)cc2c(=O)[nH]1 [Raltitrexed],TYMS,TYMS
Cc1cc(CN2CCN(c3c(Br)cnc4nc(-c5ccc(N6CCN(C)CC6)cc5)[nH]c34)CC2)no1 [CCT137690],,AURKA
COC(=O)N[C@@H](C)CNc1nccc(-c2cn(C(C)C)nc2-c2cc(Cl)cc(NS(C)(=O)=O)c2F)n1 [Encorafenib],BRAF,
CN(Cc1cnc2nc(N)nc(N)c2n1)c1ccc(C(=O)N[C@@H](CCC(=O)O)C(=O)O)cc1 [Methotrexate],DHFR,DHFR
COc1ccc(-c2nc(N3CCOCC3)c3sc(CN(C)c4ncc(C(=O)NO)cn4)cc3n2)cn1 [Fimepinostat],HDAC1,HDAC1
CC(C)(C)Cn1c(N)nc2ccc(-c3[nH]c(C(C)(C)C)nc3-c3ccc(F)cc3)nc21 [Ralimetinib],MAPK14,MAPK14
C[C@@H]1CN(Cc2ccc(F)cc2)[C@@H](C)CN1C(=O)c1cc2c(C(=O)C(=O)N(C)C)cn(C)c2cc1Cl [SCIO-469],MAPK14,MAPK14
